Experimental data published in patent publication US8354498B2, “CD4 mimic peptides and their uses” (Commissariat a l'Energie Atomique, priority 2006, dated 2013).
Where two headings read alike, the source gives them in different places.

Key:
Format in all cases: cell-based
HIV-1 pseudovirus VI1358 = assay: HIV single cycle pseudovirus assay in GHOST cells; conditions: read-out: antiviral activity EC50
Experimental: (§1) For single-cycle infection experiments, HIV pseudoviruses representative of different HIV-1 subtypes were produced by co-transfection of 2×10^5 HEK293 (American Type Culture Collection) derived cells expressing the SV40 T antigen (HEK293 T), using the calcium phosphate method (ProFection® mammalian transfection system; PROMEGA). To this end, 1 μg of an HIV-1 env expressing vector under control of a CMV promoter, derived from pcDNA4/TO backbone vector (INVITROGEN) and 400 ng of the HIV-1 genomic vector (pNL4-3.Luc R^−E^−; National Institutes of Health AIDS Research and Reference Reagent program; catalogue number 3418), under control of the LTR promoter were used. pNL4-3.Luc R^−E^− contains the whole HIV genome, including a packaging signal, but has a frameshift in the env and vpr genes rendering it non-infectious. Furthermore a luciferase reporter gene replaces the nef gene. After 24 h, the medium was replaced with medium containing 1 mM sodium butyrate (SIGMA-ALDRICH) and the cells were further incubated for an additional 24 h. Afterwards, the supernatant with the pseudovirus was harvested, filtered (Millex 0.45 μm filters, MILLIPORE) and after adding Fetal calf serum (FCS; 10%) stored at −80° C. Pseudoviruses of different HIV-1 subtypes were created, including pseudoviruses derived from the subtype B, CCR5 co-receptor using strains Ba-L and SF162; the subtype B, CXCR4 co-receptor using strains Mn; the subtype C, CCR5 co-receptor using strains VI829, VI1358 and MJ4 and the CRF01_AE, CXCR4 co-receptor using strain CA10-3.
(§2) Fifty microliters of HIV pseudovirus were pre-incubated with 50 μl of a dilution series of a CD4 miniprotein or reference compound. After 15 minutes, 100 μl of GHOST target cells (AIDS REFERENCE AND REAGENT PROGRAM; 1.2×10^5 cells/ml) expressing CD4 and either of the HIV co-receptors CCR5 or CXCR4 were added to the 96-well cups containing the pre-treated pseudovirus. The GHOST cells were lysed 48 h post-infection by addition of the luciferin substrate (SteadyLite HTS, PERKIN ELMER LIFE SCIENCES). The resulting light signal, expressed as relative lights units (RLU), was quantified in a luminometer (Top Count™, CANBERRA-PACKARD).

HIV-1 pseudovirus SF162 = assay: HIV single cycle pseudovirus assay in GHOST cells; conditions: read-out: antiviral activity EC50
Experimental: as §1, §2

HIV-1 pseudovirus CA10-3 = assay: HIV single cycle pseudovirus assay in GHOST cells; conditions: read-out: antiviral activity EC50
Experimental: as §1, §2

HIV-1 pseudovirus Mn = assay: HIV single cycle pseudovirus assay in GHOST cells; conditions: read-out: antiviral activity EC50
Experimental: as §1, §2

HIV-1 pseudovirus Ba-L = assay: HIV single cycle pseudovirus assay in GHOST cells; conditions: read-out: antiviral activity EC50
Experimental: as §1, §2

HIV-1 pseudovirus VI829 = assay: HIV single cycle pseudovirus assay in GHOST cells; conditions: read-out: antiviral activity EC50
Experimental: as §1, §2

HIV-1 pseudovirus MJ4 = assay: HIV single cycle pseudovirus assay in GHOST cells; conditions: read-out: antiviral activity EC50
Experimental: as §1, §2

HIV-1 Ba-L = assay: Dendritic cells assay: MO-DC/CD4+ T cell co-cultures, replication competent virus; conditions: for EC50: Human immunodeficiency virus 1, BAL
Experimental: Dendritic cell experiments were preformed with the replication-competent CCR5 co-receptor, using non-syncytium inducing, subtype B HIV-1 strain Ba-L whose infectious titer was determined on cultures of PHA/IL-2 stimulated PBMC.
Monocytes were separated from the buffy-coats of HIV seronegative blood donors by counter-flow elutriation and E-rosetting. They were subsequently differentiated to monocyte-derived dendritic cells (MO-DC) using GM-CSF and IL-4. […] After 30 minutes, 100 μl of MO-DC were added (4×10^5 cells/ml) and incubated for 2 h (37° C., 5% CO2). Afterwards, cells were washed 3 times and autologous CD4+ T cells were added, in the presence of compound. Co-cultures were incubated for 24 h, after which the cells were washed again (3 times) to remove the compound. Cells were incubated during 14 days of primary culture, during which half of the culture medium was refreshed twice weekly, without compound. At day 14, cultures were washed and PHA/IL-2 activated PBMC were added (2×10^5 cells/cup) to detect any latent or subliminal infection during a supplementary 14 days of secondary culture. Culture supernatants of primary (day 7 and day 14) and secondary (day 28) cultures were analyzed for the presence of HIV p24 Ag by a monoclonal p24 antibody (HuMab-HIVp24; BIOMARIC NV) enzyme-linked immunosorbant assay (ELISA).
Importantly, the replication-competent HIV-1 Ba-L reference strain, was used for these experiments. The virus was shortly pre-incubated with a dilution range of one of the compounds before addition of the MO-DC target cells. The compound remained present during infection and during the first 24 h of the co-culture of the MO-DC with the autologous CD4^+ T cells, but was washed away afterwards.

## Cc1cc(C)c(Nc2ccnc(Nc3ccc(C#N)cc3)n2)c(C)c1 [TMC120]
HIV-1 pseudovirus VI1358
  EC50: 0.6 nM
HIV-1 pseudovirus SF162
  EC50: 0.9 nM
HIV-1 pseudovirus CA10-3
  EC50: 1.5 nM
HIV-1 pseudovirus Mn
  EC50: 1.8 nM
HIV-1 pseudovirus Ba-L
  EC50: 1.5 nM
HIV-1 pseudovirus VI829
  EC50: 1.2 nM
HIV-1 pseudovirus MJ4
  EC50: 1.5 nM
HIV-1 Ba-L; 168 h, Day 7, read-out: EC50, primary culture, Day 7
  EC50: 3 nM
HIV-1 Ba-L; 336 h, Day 14, read-out: EC50, primary culture, Day 14
  EC50: 3 nM
HIV-1 Ba-L; confirmed at Day 28
  Cmin, secondary culture, Day 28 (minimal concentration blocking infection): 100 nM
